Data on 1 molecule can be found in patent US10383815B2, “Method and compositions for improving selective catabolysis in cells of keratin surfaces” (ELC Management LLC, priority 2012, dated 2019).

This assay concerns PER1 gene expression in skin cells. In words: PER1 gene expression in skin cells. The assay is classed as cell-based. The text has this:
A specific example includes a botanical extract from Echinacea purpurea sold by Symrise under the brand name Symfinity™ 1298 which is an extract of Echinacea purpurea which is standardized during the extraction process to contain about 3% by weight of the total extract composition of cichoric acid. Echinacea extracts from different sources will vary in cichoric acid content, and as such will yield variable results in induction of PER1 gene expression. […] Moreover, each species of Echinacea will differ in content of phenolic and cichoric acids. Ethanolic extract of the roots of Echinacea purpura will provide more cichoric acid than ethanolic extracts of Echineacea angustifolia or Echinacea pallida. The content of active ingredients in any extract is also very dependent on the method of extraction. For example, it is known that in many cases enzymatic browning during the extraction process will reduce the phenolic acid content of the resulting extract.

As for `O=C(/C=C/c1ccc(O)c(O)c1)O[C@@H](C(=O)O)[C@@H](O)C(=O)O` [caftaric acid], the PER1 gene expression entry is “does not increase”.
